The values that follow come from patent US12667584B2, “Adenosine analog and its use in regulating the circadian clock” (NATIONAL INSTITUTE OF BIOLOGICAL SCIENCES, BEIJING, priority 2017, dated 2026).

SMILES strings stand for the structures. pKd: −log10 of the molar value.

One may read the pKd as the negative decadic logarithm of the Kd, by convention in mol/L. Higher therefore signals a small Kd.

The nature of assay [1]: Sleep phenotype by locomoter activity and electrophysiological recording. To be noted: in vivo. The text has this:
This is considered as a positive side-effect to adapt to jet-lag, which causes more problems on the sleep than arousal side. […] This work provide immediate and important practical applications, including use the disclosed compounds to assist humans who suffer jet-lag or shift-work can use this drug to adjust the clock-phase, and simultaneously tune the sleep-wake pattern, particularly coupled with caffeine ingestion.

Another assay has as its system liver culture slice. Put plainly: Ex vivo liver slice culture from Per2::LUC mice, lumicycle. In kind it is cell-based, mouse. The settings on record: 100 μM at Per2::LUC peak. An excerpt:
Tissue culture, drug treatment and Real-Time Monitoring of Circadian Oscillations: 8 week-old male mPer2 Luciferase knockin mice were Sacrificed cervical dislocation. Then wipe the skin and neck with cotton containing 70% ethanol in a sterile hood. For SCN slice culture, firstly remove the eye balls from the head with scissors, decapitate and cut the skin. Then open the skull, remove all bone until the olfactory bulbs can be seen, cut the optic nerve between the olfactory bulbs and the hemispheres, and finally harvest the whole brain into ice cold HBSS. Trim the brain in HBSS by removing the cerebellum and olfactory bulbs. Attach the brain to a sample tray by glue with the rostral tip upwards and ventral surface closest to the cutting blade, then immediately fill the tray with ice cold HBSS and set the tray to the vibratome. Set the vibratome frequency at the maximum and the speed to the medium. To reach the SCN area quickly, the start cutting off thicker sections should be 500-800 μm. Reduce the sections thicker to 100 μm when the optic chiasm becomes wider. When the two SCN nuclei start to appear, collect the slice with transfer pipettes and check slices under dissecting microscope. […] Data was extract and analyzed with LumiCycle Analysis software. […]

A further assay addresses Ruvbl2 (Homo sapiens, UniProt Q9Y230). Put plainly: SPR binding to RUVBL2 protein (Biacore T200). To be noted: purified RUVBL2. The protocol:
Biotinylated Compounds Pull-down, SPR analysis and Immunoprecipitation: The interaction between biotinylated compounds and their target proteins were proceeded as follow. Every 10^8 unsynchronized U2OS cells were collected, homogenized into 2 ml lysis buffer (25 mM MOPS pH7.2, 15 mM EGTA, 15 mM MgCl2, 1 mM DTT, 60 mM β-glycerophosphate, 1 mM Na3VO4, 1 mM NaF, 1 mM phenyl phosphate, Complete Protease Inhibitor Cocktail), and sonicated 6 times for 30 s at 4° C. with a Diagenode bioruptor. After sonication, NP-40 (final 0.5%) was added, incubated 15 min on ice, centrifuged at full speed for 20 min at 4° C. The resultant supernatant was firstly incubated with Pentostatin (final concentration at 5 μg/ml) for 2 h at 4° C. with rotation, and then split into 4 groups. 200 pmol cordycepin, 200 pmol DRB, and DMSO (2 groups, final 0.1%) was added respectively and further incubated for 1 h. […] The eluted protein was analyzed with western blot. The binding affinity of cordycepin against the RUVBL2 protein was measured via SPR technology using a Biacore T200 instrument (GE Healthcare) at room temperature. […] The binding kinetics and binding affinity of cordycepin against the RUVBL2 protein were determined with BIA evaluation software (GE healthcare). […] Immunoprecipitated protein complex was then washed 3 times with IP lysis buffer, boiled and analyzed with western blot. […]
Background: SPR reads the build-up and loss of mass on a sensor chip optically.

Ruvbl2, sequence (Q9Y230 whole entry): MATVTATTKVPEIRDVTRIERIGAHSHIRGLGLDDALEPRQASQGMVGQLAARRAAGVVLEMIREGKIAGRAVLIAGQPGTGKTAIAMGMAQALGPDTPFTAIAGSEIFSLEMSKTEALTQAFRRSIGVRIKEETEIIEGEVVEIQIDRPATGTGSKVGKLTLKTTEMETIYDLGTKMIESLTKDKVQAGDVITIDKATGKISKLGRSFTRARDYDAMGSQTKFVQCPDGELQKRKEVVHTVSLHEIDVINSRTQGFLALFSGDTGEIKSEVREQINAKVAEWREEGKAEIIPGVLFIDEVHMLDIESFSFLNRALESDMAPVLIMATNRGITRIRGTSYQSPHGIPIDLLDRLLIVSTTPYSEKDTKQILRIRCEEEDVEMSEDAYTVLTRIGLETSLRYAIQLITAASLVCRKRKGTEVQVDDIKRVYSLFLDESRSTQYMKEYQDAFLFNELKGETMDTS

Turning to `Nc1ncnc2c1ncn2[C@@H]1O[C@H](CO)C[C@H]1O` [Cordycepin, 3′-deoxy-adenosine], the sleep phenotype entry in assay [1] was “leads to a sleep phenotype”. Also, the “clock phase of liver slice versus DMSO” value in the assay on liver culture slice is listed as “totally antiphase”. Moreover, the pKd at Ruvbl2 was about 6.30.
